Data taken from paper PMC12531613, “Synthesis and Biological Evaluation of Novel 2‐(Piperidin‐4‐yl)‐1,2,3,4‐tetrahydroisoquinoline and 2‐(Piperidin‐4‐yl)decahydroisoquinoline Antimycotics” (Archiv Der Pharmazie, 2025).
≈ marks a conversion by molar mass, not a printed value. Where two headings read alike, the source gives them in different places.

Legend:
Assay type in all cases: cell-based
[1] = tested on: Yarrowia lipolytica; experiment: MIC100 microdilution assay against Yarrowia lipolytica
Procedure: In previous research we found a good correlation between MIC values against Yarrowia lipolytica and pathogenic Candida species.
Determination of MICs against Yarrowia lipolytica (DSMZ, Braunschweig, Germany) was carried out according to lit. Yarrowia lipolytica was cultivated in AC‐agar (Sigma Aldrich). Concentration of yeast cells was determined by photometer and adjusted to a turbidity of 0.5 according to McFarland standard at 600 nm. All substances were dissolved in DMSO or methanol.
Determination of MICs (minimal inhibitory concentration) against Yarrowia lipolytica was carried out according to Lit.^[13] Concentration of yeast cells was determined by photometer and adjusted to a turbitity of 0.5 according to McFarland Standard.

[2] = tested on: C. krusei; experiment: MIC90 microdilution (EUCAST), C. krusei; settings: Pichia kudriavzevii, 24 h
Procedure: (§1) Determination of MICs (minimal inhibitory concentration) against Candida species was carried out according to the European Committee of Antifungal Susceptibility Testing. Concentration of yeast cells was determined by photometer and adjusted to a turbidity of 0.5 according to McFarland standard. MIC90 was determined by microdilution plate reader (Sunrise Tecan) at 450 nm, after 24 h incubation at 37°C. MIC90 was defined as the minimal concentration of chemical causing 90% growth inhibition, respectively. Growth inhibition of molds was determined by eye and microscopically, following EUCAST guidelines. All substances were dissolved in DMSO and diluted in RPMI 1640 medium, containing 2% glucose. All assays were carried out twice.

[3] = tested on: C. glabrata; experiment: MIC90 microdilution (EUCAST), C. glabrata; settings: Nakaseomyces glabratus, 24 h
Procedure: as §1

[4] = tested on: A. fumigatus (A65); experiment: MIC90 growth inhibition of molds (EUCAST), A. fumigatus (A65); settings: Aspergillus fumigatus, RPMI 1640, 2% glucose, read by eye and microscopically
Procedure: Determination of MICs (minimal inhibitory concentration) against Candida species was carried out according to the European Committee of Antifungal Susceptibility Testing. Concentration of yeast cells was determined by photometer and adjusted to a turbidity of 0.5 according to McFarland standard. […] Growth inhibition of molds was determined by eye and microscopically, following EUCAST guidelines. […] All assays were carried out twice.

[5] = tested on: C. albicans; experiment: MIC90 microdilution (EUCAST), C. albicans; settings: Candida albicans, 24 h
Procedure: as §1

[6] = tested on: R. microsporus; experiment: MIC90 growth inhibition of molds (EUCAST), R. microsporus; settings: Rhizopus microsporus
Procedure: as §1

[7] = tested on: A. fumigatus (R16); experiment: MIC90 growth inhibition of molds (EUCAST), A. fumigatus (R16); settings: Aspergillus fumigatus
Procedure: as §1

[8] = tested on: A. fumigatus (R7); experiment: MIC90 growth inhibition of molds (EUCAST), A. fumigatus (R7); settings: Aspergillus fumigatus
Procedure: as §1

[9] = tested on: R. arrhizus (oryzae); experiment: MIC90 growth inhibition of molds (EUCAST), R. arrhizus (oryzae); settings: Rhizopus arrhizus
Procedure: as §1

[10] = MTT cytotoxicity assay against HL 60 cells; settings: human, HL-60 cells (human leukemia cells); HL 60 cell line; MTT assay; read-out: IC50 cytotoxicity
Procedure: The cytotoxicity of the active compounds was checked in an MTT assay against human HL 60 cells. […] Although, this corresponds to the MIC range that would be needed in treatment, the values are within the range observed for commonly used antimycotics such as amorolfine and posaconazole. All active compounds were evaluated for their biopharmaceutical behavior and drug‐likeness using the online program SwissADME [26] and should show oral bioavailability according to the Lipinski rules of five.
HL‐60 cells (human leukemia cells, DSM No. ACC3) were obtained from DSMZ (German Collection of Microorganisms and Cell Cultures, Braunschweig, Germany) and cultivated in RPMI 1640 medium with 10% fetal bovine serum (FBS), both from PAA Laboratories, Cölbe, Germany) without the addition of antibiotics at 37°C in a humidified atmosphere containing 5% CO2. The assay was performed according to lit.

[11] = 48 h, read-out: Biological Activity MIC Yarrowia lipolytica

CCCCCCCC(=O)N1CCC(N2CCc3cc(OC)c(OC)cc3C2)CC1 [5e, 1‐[4‐(6,7‐Dimethoxy‐3,4‐dihydroisoquinolin‐2(1H)‐yl)‐piperidin‐1‐yl]‐octan‐1‐one]
MIC [1, 11]: > 100 µg/mL
MIC ([1]; 48 h, read-out: MIC100): > 100 µg/mL

CCCCN1CCC(N2CCc3cc(OC)c(OC)cc3C2)CC1 [6d, 2‐(1‐Butylpiperidin‐4‐yl)‐6,7‐dimethoxy‐1,2,3,4‐tetrahydroisoquinoline]
MIC90 [2]: > 32 µg/mL
MIC90 [3]: > 32 µg/mL
MIC90 [4]: > 32 µg/mL
MIC [1, 11]: > 100 µg/mL
MIC ([1]; 48 h, read-out: MIC100): > 100 µg/mL
MIC90 [5]: > 32 µg/mL
MIC90 [6]: > 32 µg/mL
MIC90 [7]: > 32 µg/mL
MIC90 [8]: > 32 µg/mL
MIC90 [9]: > 32 µg/mL
IC50 [10]: > 100 µg/mL

CCCCCCCCCCCC(=O)N1CCC(N2CCc3cc(OC)c(OC)cc3C2)CC1 [5f, 1‐[4‐(6,7‐Dimethoxy‐3,4‐dihydroisoquinolin‐2(1H)‐yl)piperidin‐1‐yl]dodecan‐1‐one]
MIC [1, 11]: > 100 µg/mL
MIC ([1]; 48 h, read-out: MIC100): > 100 µg/mL

CCCCCCCCN1CCC(N2CCc3cc(OC)c(OC)cc3C2)CC1 [6e, 6,7‐Dimethoxy‐2‐(1‐octylpiperidin‐4‐yl)‐1,2,3,4‐tetrahydroisoquinoline]
MIC90 [2]: 8 µg/mL (≈ 20.6 µM)
MIC90 [3]: > 32 µg/mL
MIC90 [4]: > 32 µg/mL
MIC [1, 11]: 1.6 µg/mL
MIC ([1]; 48 h, read-out: MIC100): 1.6 µg/mL
MIC ([1]; read-out: MIC100 (molar value in brackets)): 4.1 µM
MIC90 [5]: 32 µg/mL (≈ 82.3 µM)
MIC90 [6]: > 32 µg/mL
MIC90 [7]: > 32 µg/mL
MIC90 [8]: > 32 µg/mL
MIC90 [9]: > 32 µg/mL
IC50 [10]: > 100 µg/mL

CCCC(=O)N1CCC(N2CCC3CCCCC3C2)CC1 (racemic) [5g, (±)‐1‐[4‐(Octahydroisoquinolin‐2(1H)‐yl)‐piperidin‐1‐yl]‐butan‐1‐one]
MIC [1, 11]: > 100 µg/mL
MIC ([1]; 48 h, read-out: MIC100): > 100 µg/mL

CCCCCCCCN1CCC(N2CCc3ccccc3C2)CC1 [6b, 2‐(1‐Octylpiperidin‐4‐yl)‐1,2,3,4‐tetrahydroisoquinoline]
MIC [1, 11]: 100 µg/mL
MIC ([1]; 48 h, read-out: MIC100): 100 µg/mL

CCC(C)(C)c1ccc(CC(C)CN2C[C@@H](C)O[C@@H](C)C2)cc1 (stereo partly shown) [Amorolfine, reference compound]
IC50 [10]: 17 µg/mL (≈ 53.5 µM)

COc1cc2c(cc1OC)CN(C1CCN(Cc3ccccc3)CC1)CC2 [7b, 2‐(1‐Benzylpiperidin‐4‐yl)‐6,7‐dimethoxy‐1,2,3,4‐tetrahydroisoquinoline]
MIC90 [2]: > 32 µg/mL
MIC90 [3]: > 32 µg/mL
MIC90 [4]: > 32 µg/mL
MIC [1, 11]: > 100 µg/mL
MIC ([1]; 48 h, read-out: MIC100): > 100 µg/mL
MIC90 [5]: > 32 µg/mL
MIC90 [6]: > 32 µg/mL
MIC90 [7]: > 32 µg/mL
MIC90 [8]: > 32 µg/mL
MIC90 [9]: > 32 µg/mL

CC[C@@H]([C@H](C)O)n1ncn(-c2ccc(N3CCN(c4ccc(OC[C@@H]5CO[C@@](Cn6cncn6)(c6ccc(F)cc6F)C5)cc4)CC3)cc2)c1=O [Posaconazole, reference compound]
IC50 [10]: 5 µg/mL (≈ 7.13 µM)

CCCCCCCCN1CCC(N2CCC3CCCCC3C2)CC1 (racemic) [6h, (±)‐2‐(1‐Octylpiperidin‐4‐yl)decahydroisoquinoline]
MIC90 [2]: 8 µg/mL (≈ 23.9 µM)
MIC90 [3]: > 32 µg/mL
MIC90 [4]: > 32 µg/mL
MIC [1, 11]: 3.1 µg/mL
MIC ([1]; 48 h, read-out: MIC100): 3.1 µg/mL
MIC90 [5]: > 32 µg/mL
MIC90 [6]: > 32 µg/mL
MIC90 [7]: > 32 µg/mL
MIC90 [8]: > 32 µg/mL
MIC ([9]; read-out: MIC90): 32 µg/mL (≈ 95.6 µM)
IC50 [10]: 75 µg/mL (≈ 224 µM)

CCCCCCCCCCCC(=O)N1CCC(N2CCC3CCCCC3C2)CC1 (racemic) [5i, (±)‐1‐[4‐(Octahydroisoquinolin‐2(1H)‐yl)‐piperidin‐1‐yl]‐dodecan‐1‐one]
MIC [1, 11]: > 100 µg/mL
MIC ([1]; 48 h, read-out: MIC100): > 100 µg/mL

COc1cc2c(cc1OC)CN(C1CCN(C(=O)OC(C)(C)C)CC1)CC2 [3b, tert‐Butyl 4‐(6,7‐dimethoxy‐3,4‐dihydroisoquinolin‐2(1H)‐yl)piperidine‐1‐carboxylate]
MIC [1, 11]: > 100 µg/mL
MIC ([1]; 48 h, read-out: MIC100): > 100 µg/mL
